Source: US8017612B2, “Piperazine compound and use thereof as a HCV polymerase inhibitor” (priority 2006, dated 2011)

What was measured:
[1] = molecular target: T1, HCV polymerase (NS5B) type 1a (Hepatitis C virus genotype 1a, UniProt P26664); experiment: Assay of enzyme (HCV polymerase) inhibitory activity, type 1a enzyme; assay type: biochemical, HCV type 1a (cloned from the blood of patients); conditions: HCV polymerase inhibitory activity (IC50), 1a, type 1a enzyme 1.5 μg/ml, 25° C., 60 min
T1 construct: made in house; host or cells: Escherichia coli (by the 'similar method' of the 1b enzyme)
Outline: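 Patient-derived type 1a NS5B (C-terminal 47-aa deletion, His-tagged, E. coli-expressed) at 1.5 μg/ml was reacted with 5 μg/ml 3′UTR-containing substrate RNA, 50 μM ATP/GTP/CTP, 2 μM UTP plus [3H]UTP, pH 7.5, 25° C for 60 min. TCA-precipitated RNA radioactivity was counted; IC50 from ± compound.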

[2] = molecular target: T2, HCV polymerase (NS5B) type 1b (Hepatitis C virus genotype 1b, UniProt P26663); experiment: Assay of enzyme (HCV polymerase) inhibitory activity, type 1b enzyme; assay type: biochemical, HCV BK strain (type 1b); conditions: HCV polymerase inhibitory activity (IC50), 1b, type 1b enzyme 0.5 μg/ml, 25° C., 60 min
T2 construct: a region encoding NS5B (J Virol 1991 March, 65(3), 1105-13, 544 amino acids after deletion of 47 amino acids on the C-terminal); 6xHis (C); made in house; host or cells: Escherichia coli
Outline: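 NS5B from HCV BK strain (type 1b), C-terminal 47 aa deleted, C-terminal His6-tagged, E. coli-expressed, 0.5 μg/ml, with ~450 nt substrate RNA carrying the 3′ UTR (polyU, 3′X) at 5 μg/ml. Incubation 60 min at 25 °C with 50 μM ATP/GTP/CTP, 2 μM UTP plus [3H]UTP, pH 7.5 Tris.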

Row | Structure (SMILES) | IC50 [1] [nM] | IC50 [2] [nM]
1 | CCCc1ccc(CNC(=O)[C@H]2CN(c3cc(C)c(C(=O)O)nn3)CCN2S(=O)(=O)c2ccc(OC(F)(F)F)cc2)cc1 [Example 487, 4-methyl-6-[(R)-3-(4-propyl-benzylcarbamoyl)-4-(4-trifluoromethoxy-benzenesulfonyl)-piperazin-1-yl]-pyridazine-3-carboxylic acid] | < 100 | < 100
2 | CCC(F)(F)c1ccc(CNC(=O)[C@H]2CN(C(=O)Nc3nnc(C)s3)CCN2S(=O)(=O)c2ccc(OC(F)(F)F)cc2)cc1 [Example 488, (R)-4-(4-trifluoromethoxy-benzenesulfonyl)-piperazine-1,3-dicarboxylic acid 3-[4-(1,1-difluoro-propyl)-benzylamide] 1-[(5-methyl-[1,3,4]thiadiazol-2-yl)-amide]] | 100 to 1000 | < 100
3 | CCC(F)(F)c1ccc(CNC(=O)[C@H]2CN(C(=O)Nc3nnc(C(F)(F)F)s3)CCN2S(=O)(=O)c2ccc(OC(F)(F)F)cc2)cc1 [Example 489, (R)-4-(4-trifluoromethoxy-benzenesulfonyl)-piperazine-1,3-dicarboxylic acid 3-[4-(1,1-difluoro-propyl)-benzylamide] 1-[(5-trifluoromethyl-[1,3,4]thiadiazol-2-yl)-amide]] | > 1000 | > 1000
4 | CCC(F)(F)c1ccc(CNC(=O)[C@H]2CN(C(=O)Nc3ccnc(OC)c3)CCN2S(=O)(=O)c2ccc(OC(F)(F)F)cc2)cc1 [Example 490, (R)-4-(4-trifluoromethoxy-benzenesulfonyl)-piperazine-1,3-dicarboxylic acid 3-[4-(1,1-difluoro-propyl)-benzylamide] 1-[(2-methoxy-pyridin-4-yl)-amide]] | < 100 | 100 to 1000
5 | CCC(F)(F)c1ccc(CNC(=O)[C@H]2CN(C(=O)Nc3ccnc(C(=O)OC(C)(C)C)c3)CCN2S(=O)(=O)c2ccc(OC(F)(F)F)cc2)cc1 [Example 491, 4-{[(R)-3-[4-(1,1-difluoro-propyl)-benzylcarbamoyl]-4-(4-trifluoromethoxy-benzenesulfonyl)-piperazine-1-carbonyl]-amino}-pyridine-2-carboxylic acid tert-butyl ester] | < 100 | < 100
6 | CC(=O)N1CCN(S(=O)(=O)c2ccc(C(C)C)cc2)[C@@H](C(=O)NCc2ccc(-c3csnn3)cc2)C1 [Example 492, (R)-4-acetyl-1-(4-isopropyl-benzenesulfonyl)-piperazine-2-carboxylic acid 4-[1,2,3]thiadiazol-4-yl-benzylamide] | > 1000 | 100 to 1000
7 | CC(C)c1ccc(CNC(=O)[C@H]2CN(c3cnn(CC(=O)O)c3)CCN2S(=O)(=O)c2ccc(OC(F)(F)F)cc2)cc1 [Example 493, {4-[(R)-3-(4-isopropyl-benzylcarbamoyl)-4-(4-trifluoromethoxy-benzenesulfonyl)-piperazin-1-yl]-pyrazol-1-yl}-acetic acid] | 100 to 1000 | 100 to 1000
8 | CCCc1ccc(CNC(=O)[C@H]2CN(c3cc(C)c(C(N)=O)nn3)CCN2S(=O)(=O)c2ccc(OC(F)(F)F)cc2)cc1 [Example 494, 4-methyl-6-[(R)-3-(4-propyl-benzylcarbamoyl)-4-(4-trifluoromethoxy-benzenesulfonyl)-piperazin-1-yl]-pyridazine-3-carboxylic acid amide] | < 100 | < 100
9 | CCC(F)(F)c1ccc(CNC(=O)[C@H]2CN(C(=O)Nc3nnc(C(=O)N4CC[C@@H](O)C4)s3)CCN2S(=O)(=O)c2ccc(OC(F)(F)F)cc2)cc1 [Example 495, (R)-4-(4-trifluoromethoxy-benzenesulfonyl)-piperazine-1,3-dicarboxylic acid 3-[4-(1,1-difluoro-propyl)-benzylamide] 1-{[5-((R)-3-hydroxy-pyrrolidine-1-carbonyl)-[1,3,4]thiadiazol-2-yl]-amide}] | > 1000 | 100 to 1000
10 | CCC(F)(F)c1ccc(CNC(=O)[C@H]2CN(C(=O)Nc3nnc(C(=O)N4CCC(O)CC4)s3)CCN2S(=O)(=O)c2ccc(OC(F)(F)F)cc2)cc1 [Example 496, (R)-4-(4-trifluoromethoxy-benzenesulfonyl)-piperazine-1,3-dicarboxylic acid 3-[4-(1,1-difluoro-propyl)-benzylamide] 1-{[5-(4-hydroxy-piperidine-1-carbonyl)-[1,3,4]thiadiazol-2-yl]-amide}] | > 1000 | > 1000
11 | CCC(F)(F)c1ccc(CNC(=O)[C@H]2CN(C(=O)Nc3nnc(C(=O)N4CCOCC4)s3)CCN2S(=O)(=O)c2ccc(OC(F)(F)F)cc2)cc1 [Example 497, (R)-4-(4-trifluoromethoxy-benzenesulfonyl)-piperazine-1,3-dicarboxylic acid 3-[4-(1,1-difluoro-propyl)-benzylamide] 1-{[5-(morpholine-4-carbonyl)-[1,3,4]thiadiazol-2-yl]-amide}] | > 1000 | > 1000
12 | CCC(F)(F)c1ccc(CNC(=O)[C@H]2CN(C(=O)Cc3cn(C)cn3)CCN2S(=O)(=O)c2ccc(OC(F)(F)F)cc2)cc1 [Example 498, (R)-4-[2-(1-methyl-1H-imidazol-4-yl)-acetyl]-1-(4-trifluoromethoxy-benzenesulfonyl)-piperazine-2-carboxylic acid 4-(1,1-difluoro-propyl)-benzylamide] | 100 to 1000 | 100 to 1000
13 | CCCc1ccc(CNC(=O)[C@H]2CN(c3nc(C)c(C(=O)O)s3)CCN2S(=O)(=O)c2ccc(OC(F)(F)F)c(CCC)c2)cc1 [Example 499, 4-methyl-2-[(R)-3-(4-propyl-benzylcarbamoyl)-4-(3-propyl-4-trifluoromethoxy-benzenesulfonyl)-piperazin-1-yl]-thiazole-5-carboxylic acid] | < 100 | < 100
14 | CC(C)(C)c1ccc(CNC(=O)[C@H]2CN(C(=O)Cc3ccncc3)CCN2S(=O)(=O)c2ccc(OC(F)(F)F)cc2)cc1 [Example 500, (R)-4-(2-pyridin-4-yl-acetyl)-1-(4-trifluoromethoxy-benzenesulfonyl)-piperazine-2-carboxylic acid 4-tert-butyl-benzylamide] | < 100 | < 100
15 | CC(C)(C)c1ccc(CNC(=O)[C@H]2CN(c3cnc(C(=O)O)cn3)CCN2S(=O)(=O)c2ccc(OC(F)(F)F)cc2)cc1 [Example 501, (R)-3-(4-tert-butyl-benzylcarbamoyl)-4-(4-trifluoromethoxy-benzenesulfonyl)-3,4,5,6-tetrahydro-2H-[1,2′]bipyrazinyl-5′-carboxylic acid] | < 100 | < 100
16 | CCC(F)(F)c1ccc(CNC(=O)[C@H]2CN(C(=O)Nc3ccnc(C(=O)O)c3)CCN2S(=O)(=O)c2ccc(OC(F)(F)F)cc2)cc1 [Example 502, 4-{[(R)-3-[4-(1,1-difluoro-propyl)-benzylcarbamoyl]-4-(4-trifluoromethoxy-benzenesulfonyl)-piperazine-1-carbonyl]-amino}-pyridine-2-carboxylic acid] | 100 to 1000 | 100 to 1000
17 | CCC(F)(F)c1ccc(CNC(=O)[C@H]2CN(C(=O)Nc3ccnc(C(N)=O)c3)CCN2S(=O)(=O)c2ccc(OC(F)(F)F)cc2)cc1 [Example 503, (R)-4-(4-trifluoromethoxy-benzenesulfonyl)-piperazine-1,3-dicarboxylic acid 1-[(2-carbamoyl-pyridin-4-yl)-amide] 3-[4-(1,1-difluoro-propyl)-benzylamide]] | 100 to 1000 | < 100
18 | CCC(F)(F)c1ccc(CNC(=O)[C@H]2CN(C(=O)Nc3ccnc(C(=O)N(C)C)c3)CCN2S(=O)(=O)c2ccc(OC(F)(F)F)cc2)cc1 [Example 504, (R)-4-(4-trifluoromethoxy-benzenesulfonyl)-piperazine-1,3-dicarboxylic acid 3-[4-(1,1-difluoro-propyl)-benzylamide] 1-[(2-dimethylcarbamoyl-pyridin-4-yl)-amide]] | < 100 | < 100
19 | CCCc1ccc(CNC(=O)[C@H]2CN(c3nc(C)c(CN(C)C)s3)CCN2S(=O)(=O)c2ccc(OC(F)(F)F)cc2)cc1 [Example 505, (R)-4-(5-dimethylaminomethyl-4-methyl-thiazol-2-yl)-1-(4-trifluoromethoxy-benzenesulfonyl)-piperazine-2-carboxylic acid 4-propyl-benzylamide] | < 100 | < 100
20 | CCCc1ccc(CNC(=O)[C@H]2CN(c3nc(C)c(CNC)s3)CCN2S(=O)(=O)c2ccc(OC(F)(F)F)cc2)cc1 [Example 506, (R)-4-(4-methyl-5-methylaminomethyl-thiazol-2-yl)-1-(4-trifluoromethoxy-benzenesulfonyl)-piperazine-2-carboxylic acid 4-propyl-benzylamide] | < 100 | < 100
21 | CCCc1ccc(CNC(=O)[C@H]2CN(c3cnc(C(=O)OC)c(N)n3)CCN2S(=O)(=O)c2ccc(OC(F)(F)F)cc2)cc1 [Example 507, (R)-6′-amino-3-(4-propyl-benzylcarbamoyl)-4-(4-trifluoromethoxy-benzenesulfonyl)-3,4,5,6-tetrahydro-2H-[1,2′]bipyrazinyl-5′-carboxylic acid methyl ester] | < 100 | < 100
